From patent US20100196308A1, “VITAMIN D3 AND ANALOGS THEREOF FOR ALLEVIATING SIDE EFFECTS ASSOCIATED WITH CHEMOTHERAPY” (priority 2009, published 2010)

Experiments:
[1] = tested on: Peripheral circulating progenitor stem cells; experiment: Colony formation assay in semi-solid agar medium with GM-CSF and G-CSF; format: cell-based, human; settings: Group 2: 0.05 μg/mL 1,25(OH)2D3 for 24 hours, no 4-HC; mean ± SD, quadruplicates
Excerpt: Tissue culture grade agar, fetal calf serum (FCS), and powdered Dulbecco's Modified Eagle's Medium (DMEM) were obtained from Invitrogen (Carlsbad, Calif.). Peripheral circulating progenitor stem cells were obtained by venipuncture of the saphenous vein of a healthy donor into sodium heparin vacutainers (Becton, Dickinson and Company, Franklyn Lakes N.J.). The buffy coat was obtained by gradient centrifugation using histopaque 1077 as per manufacturer's instructions. Cells were washed twice with RMPI 1640 supplemented with 10% fetal calf serum (Invitrogen). […] Cells were cultured for 14 days in a 5% CO2 incubator, with 100% humidity at 37° C. At the end of the culture period, colonies (clusters of 50 or more cells) were counted using an inverted microscope by two independent viewers. Peripheral stem cells were randomized into 4 groups at a concentration of 5×10^5 cells/mL in DMEM supplemented with 10% fetal calf serum. Group 1 was an untreated control, group 2 was incubated for 24 hours with 0.05 μg/mL of 1,25(OH)2D3, group 3 was incubated for 24 hours with 0.05 μg/mL of 1,25(OH)2D3, group 4 was untreated. Cells were washed with DMEM 10% fetal calf serum. Groups 3 and 4 were then incubated with 25 μg/mL of 4-HC for 20 hours. Subsequently, all groups were washed twice as previously described. Cells were then plated in semi-solid agar medium as described above.

[2] = Viability of myeloid cells by trypan blue exclusion; format: cell-based; settings: human, 24-hour exposure, RPMI 1640 with 10% fetal calf serum (FIG. 2)
Method: Varying doses of 1,25(OH)2D3 were applied to the myeloid cells. A graph of the effects of 1,25(OH)2D3 on myeloid cells is provided as FIG. 2. The viability of the myeloid cells was determined by trypan blue exclusion after a 24-hour exposure to varying doses of 1,25(OH)2D3. For these experiments, 2.5×10^5 cells/mL were incubated with different doses of 1,25(OH)2D3 (0.01 μg/mL, 0.1 μg/mL, 0.5 μg/mL, 0.75 μg/mL, 1 μg/mL, and 10 μg/mL) for 24 hours in RPMI 1640 supplemented with 10% fetal calf serum.

[3] = tested on: Long Evans rats injected with MIAC51; experiment: Absolute neutrophil counts in chloroleukemic rats under chemotherapy regimens; settings: for Nadir ANC without calcitriol treatment: chemotherapy + vehicle
Method: For the first cycle of experiments, 15-day old Long Evans rats were injected with MIAC51. […] Starting on day 20 through 32, complete granulocyte counts were then performed by puncturing the tail vein with a 27 gauge syringe while animals were manually restrained.
Neutrophil counts were measured by puncturing the tail vein as described above. […] On day 52, rats were randomized into 3 groups for each chemotherapy regimen.

bone marrow progenitors = experiment: Bone marrow cultures (colony counts) from chemotherapy-treated chloroleukemic rats
Method: To assay the Colony-Forming Activity of bone marrow progenitors and MIAC51 cells, bone marrow cells are obtained as previously described (Jimenez and Yunis, 1988), and are washed with serum free DMEM. Cells are then suspended to a concentration of 1×10^6/mL and layered onto a gradient for centrifugation for 40 minutes at 400 g. The pellet found between the medium and gradient is then carefully aspirated and washed in serum free DMEM two times. Finally, a cell suspension containing 1×10^5 cells/mL is prepared in DMEM supplemented with 10% fetal bovine serum, and incubated in tissue culture plates for 3 hours. The non-adherent cells are aspirated and transferred to semi-solid agar culture plates.
To prepare semi-solid agar medium, powdered MEM is reconstituted in tissue-culture grade water to a concentration of 2×. Agar (0.3%) is then added and the mixture is boiled until the agar is fully dissolved (Perkins and Yunis, 1986). The medium is cooled to 37° C. and essential amino acids which might have been depleted during the boiling process are then added. The semi-solid medium is then distributed onto multi-well clusters, filling one well with tissue culture grade water to avoid further evaporation. At this point, G- or GM-CSF are added following manufacturer's procedure, and the bone marrow cell suspension or MIAC51 cells are added by careful pipetting in order to avoid bubbles. Colonies are counted 7 days later.
Bone marrow cultures were performed on days 22, 25 and 32. On day 32, a complete leukocyte count was performed in all animals and those who were positive for MIAC51 were sacrificed.

[4] = Calcium levels in chemotherapy-treated chloroleukemic rats
Excerpt: On days 22, 26, 49 and 53, blood from 3 animals is collected by cardiac puncture. All blood samples are collected in a vial for analysis of calcium levels. All animals used for bone marrow cultures are anesthetized and exsanguinated prior to obtaining the bone marrow.

MIAC51 = settings: stated in the power analysis of Example 2
Method: Sprague Dawley rats (10-day old rat pups, preferably of natural litters) are used in this study. […] Thus, in rats the onset of neutropenia as judged by the nadir of ANC has been well characterized.
To obtain a power of 0.8 and a=0.05 with an absolute difference of 20%, 36 animals per group may be needed. […] According to power analysis, the minimum sample size to achieve statistical significance is 36 animals. Therefore, 4 more animals are added to each group to account for model attrition rate of 10%.

## C=C1/C(=C\C=C2/CCC[C@]3(C)[C@@H]([C@H](C)CCCC(C)(C)O)CC[C@@H]23)C[C@@H](O)C[C@@H]1O [calcitriol, 1,25-dihydroxyvitamin D3]
[1]
  Colony Counts at 14 Days: 48 ± 6
[2]
  viability at 24 h, 0.05 μg/mL: 90%
[3]; first cycle, 10 μg calcitriol pulse, cyclophosphamide (150 mg/kg) regimen
  Nadir ANC with calcitriol treatment: 2154 ± 147/mm^3
[3]; first cycle, 10 μg calcitriol pulse, cyclophosphamide and doxorubicin (100 mg/kg, 25 mg/kg) regimen
  Nadir ANC with calcitriol treatment: 2365 ± 145/mm^3
[3]; first cycle, 10 μg calcitriol pulse, cyclophosphamide, doxorubicin and paclitaxel (100, 25, 10 mg/kg) regimen
  Nadir ANC with calcitriol treatment: 2365 ± 125/mm^3
[3]; first cycle, all three chemotherapy regimens
  effect on nadir ANC: significantly decreases the nadir ANC
[3]; second cycle, 20 μg calcitriol, cyclophosphamide and doxorubicin regimen
  Nadir ANC with calcitriol treatment: 2417 ± 136/mm^3
[3]; second cycle, 20 μg calcitriol, cyclophosphamide regimen
  Nadir ANC with calcitriol treatment: 2451 ± 235/mm^3
[3]; second cycle, 20 μg calcitriol, cyclophosphamide, doxorubicin and paclitaxel regimen
  Nadir ANC with calcitriol treatment: 2364 ± 136/mm^3
[3]; second cycle, all three chemotherapy regimens
  protection against chemotherapy-induced neutropenia: significantly protects against chemotherapy-induced neutropenia in all three chemotherapy regimens
Bone marrow progenitors; day 22, first cycle, cyclophosphamide and calcitriol (FIG. 4a)
  colony count of bone marrow cultures: 56±17 colonies
Bone marrow progenitors; day 25, first cycle, cyclophosphamide and calcitriol (FIG. 5a)
  colony count of bone marrow cultures: 80±15 colonies
Bone marrow progenitors; day 40 (so in the source), second cycle, cyclophosphamide and calcitriol
  colony count of bone marrow cultures: 82±25 colonies
Bone marrow progenitors; day 52, second cycle, cyclophosphamide and calcitriol
  colony count of bone marrow cultures: 86±25 colonies
[4]; rat, in vivo
  hypercalcemia: did not induce hypercalcemia

## Cyclophosphamide
[3]; first cycle
  Nadir ANC without calcitriol treatment: 245 ± 25/mm^3
[3]; second cycle
  Nadir ANC without calcitriol treatment: 236 ± 32/mm^3
Bone marrow progenitors; day 22, first cycle, cyclophosphamide and vehicle
  colony count of bone marrow cultures: 5±1 colonies
Bone marrow progenitors; day 25, first cycle, cyclophosphamide and vehicle
  colony count of bone marrow cultures: 12±4 colonies
Bone marrow progenitors; day 40 (so in the source), second cycle, cyclophosphamide and vehicle
  colony count of bone marrow cultures: 4.5±1 colonies
Bone marrow progenitors; day 52, second cycle, cyclophosphamide-treated
  colony count of bone marrow cultures: 7±2.5 colonies
[4]; Day 22, Chemo + Vehicle
  Calcium Levels: 11 ± 0.3 mg/dL
[4]; Day 25, Chemo + Vehicle
  Calcium Levels: 9.5 ± 0.2 mg/dL
[4]; Day 32, Chemo + Vehicle
  Calcium Levels: 9.5 ± 0.5 mg/dL
[4]; Day 49, Chemo + Vehicle
  Calcium Levels: 11 ± 0.2 mg/dL
[4]; Day 52, Chemo + Vehicle
  Calcium Levels: 10 ± 0.5 mg/dL
[4]; Day 60, Chemo + Vehicle
  Calcium Levels: 11 ± 0.4 mg/dL
MIAC51
  Remission rate: at least 20%
